Values quoted from earlier work, collected in PMC11439047 (Nature Communications, 2024).

System: P2X1 receptor
Conditions: cited from earlier work

O=C(O)c1cc(C(=O)O)c(C(=O)N(Cc2cccc(Oc3ccccc3)c2)[C@H]2CCCc3ccccc32)cc1C(=O)O [A-317491]
activity for the P2X1 receptor: weak activity
